{"source": "patent US10973868B2", "about": "“Composition for topical use based on a carnosine-magnesium complex” (Outplay Inc., priority 2016, dated 2021)", "key": {"[1]": {"test_system": "adults with chronic schizophrenia", "test": "L-carnosine adjunctive treatment in chronic schizophrenia, strategic target detection test", "assay_type": "in vivo, human", "conditions": "2 g/day adjunctive, 3 months, vs placebo", "description": "Improved Cognition In Schizophrenia: Targeting glutamatergic dysfunction provides an exciting opportunity to improve cognitive impairment in schizophrenia. One treatment approach has targeted inadequate antioxidant defenses at glutamatergic synapses. […] We conducted a preliminary study to test the hypothesis that L-carnosine, an antioxidant and anti-glycation agent which is co-localized and released with glutamate would improve executive dysfunction, a cognitive domain associated with glutamate. Seventy-five symptomatically stable adults with chronic schizophrenia were randomly assigned to L-carnosine as adjunctive treatment (2 g/day) or a matched placebo in a double-blind manner for 3 months. […] The recommended dosage is 4-6 ml of the exemplary composition of the topical composition illustrated above four times a day applied to all four limbs."}, "horse fibre types": {"test_system": "horse fibre types", "conditions": "cited from earlier work"}, "[2]": {"test_system": "muscle fibres of Rana Temporaria", "conditions": "15 mM of carnosine; cited from earlier work"}, "[3]": {"test_system": "rat extensor digitorum longus muscle fibres", "conditions": "mechanically skinned fibres; cited from earlier work"}, "mice": {"test_system": "mice", "conditions": "cited from earlier work"}, "[4]": {"conditions": "aqueous solution; cited from earlier work"}, "[5]": {"test_system": "children with autistic spectrum disorders", "conditions": "after 8 weeks, P<0.05; cited from earlier work"}}, "note": "Read-outs that look alike come from different tables or passages of the source."}
{"smiles": "NCCC(=O)N[C@@H](Cc1c[nH]cn1)C(=O)O", "note": "[carnosine, β-alanyl-L-histidine]", "values": [{"measurement": "perseverative errors on the strategic target detection test", "setting": "[1]", "value": "fewer perseverative errors"}, {"measurement": "strategic efficiency on the strategic target detection test", "setting": "[1]", "value": "significantly improved"}, {"measurement": "contribution to buffering", "setting": "horse fibre types; type I fibres", "value": "about 20%"}, {"measurement": "contribution to buffering", "setting": "horse fibre types; type IIb fibres", "value": "up to 46%"}, {"measurement": "Ca^2+ sensitivity", "setting": "[2]", "value": "significant increase"}, {"measurement": "Ca^2+ release from the sarcoplasmic reticulum", "setting": "[3]", "value": "did not affect"}, {"measurement": "Ca^2+ sensitivity of the contractile components", "setting": "[3]", "value": "increase"}, {"measurement": "amount of brain tissue involved in experimentally-produced strokes", "setting": "mice", "value": "significantly reduced"}, {"measurement": "pK of the carboxylic function", "setting": "[4]", "value": 2.6}, {"measurement": "Gilliam Autism Rating Scale (total score and Behavior, Socialization, Communication subscales)", "setting": "[5]", "value": "statistically significant improvements"}, {"measurement": "Receptive One-Word Picture Vocabulary test", "setting": "[5]", "value": "statistically significant improvements"}]}
